ChEMBL document CHEMBL1154224, “Spiropiperidine CCR5 antagonists” (Bioorg Med Chem Lett, 2009)

Experiments:
[1] = Half life in rat at 1 mg/kg, iv; assay type: ADME, organism-based; design: dose 1 mg/kg, route intravenous; details: in vivo
[2] = biological target: Cytochrome P450 2D6 (Homo sapiens, UniProt P10635); experiment: Inhibition of liver CYP2D6; assay type: ADME, tissue-based
[3] = Fraction unbound in monkey plasma; assay type: ADME, cell-free, Macaca mulatta; details: rhesus monkey
[4] = biological target: Cytochrome P450 2C9 (Homo sapiens, UniProt P11712); experiment: Inhibition of liver CYP2C9; assay type: ADME, tissue-based
[5] = biological target: T1, C-C chemokine receptor type 1 (Homo sapiens, UniProt P32246); experiment: Binding affinity to human CCR1 receptor
T1 sequence (P32246 whole entry): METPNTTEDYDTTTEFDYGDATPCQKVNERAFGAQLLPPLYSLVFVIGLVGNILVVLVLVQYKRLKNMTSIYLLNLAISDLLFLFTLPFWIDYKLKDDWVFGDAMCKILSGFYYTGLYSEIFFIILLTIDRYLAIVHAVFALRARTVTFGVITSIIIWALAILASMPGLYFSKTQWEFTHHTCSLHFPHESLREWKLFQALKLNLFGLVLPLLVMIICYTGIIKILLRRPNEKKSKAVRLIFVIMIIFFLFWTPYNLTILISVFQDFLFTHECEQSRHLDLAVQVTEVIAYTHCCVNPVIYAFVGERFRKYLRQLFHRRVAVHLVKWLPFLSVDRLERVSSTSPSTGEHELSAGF

[6] = test system: Canis familiaris; experiment: Clearance in dog at 1 mg/kg, iv; assay type: ADME, organism-based, Canis lupus familiaris; design: dose 1 mg/kg, route intravenous; details: in vivo
[7] = biological target: T2, Cytochrome P450 1A2 (Homo sapiens, UniProt P05177); experiment: Inhibition of liver CYP1A2; assay type: ADME, tissue-based
T2 sequence (P05177 whole entry): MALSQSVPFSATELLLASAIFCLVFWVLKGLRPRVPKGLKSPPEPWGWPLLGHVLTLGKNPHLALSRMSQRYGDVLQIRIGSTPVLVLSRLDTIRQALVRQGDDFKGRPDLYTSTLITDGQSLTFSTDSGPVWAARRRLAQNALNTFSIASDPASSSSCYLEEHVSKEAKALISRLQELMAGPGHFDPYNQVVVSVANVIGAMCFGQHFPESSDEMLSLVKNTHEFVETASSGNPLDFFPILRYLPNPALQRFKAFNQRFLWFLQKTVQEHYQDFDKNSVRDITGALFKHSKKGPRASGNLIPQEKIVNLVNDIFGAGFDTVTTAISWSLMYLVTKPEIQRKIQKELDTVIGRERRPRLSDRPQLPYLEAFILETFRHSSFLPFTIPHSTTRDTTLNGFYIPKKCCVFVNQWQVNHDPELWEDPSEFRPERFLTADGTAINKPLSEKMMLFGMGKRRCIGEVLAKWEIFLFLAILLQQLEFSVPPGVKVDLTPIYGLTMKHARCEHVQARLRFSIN

[8] = biological target: C-C chemokine receptor type 2 (Homo sapiens, UniProt P41597); experiment: Binding affinity to human CCR2b receptor
[9] = Fraction unbound in dog plasma; assay type: ADME, cell-free, Canis lupus familiaris
[10] = biological target: T3, C-C chemokine receptor type 4 (Homo sapiens, UniProt P51679); experiment: Binding affinity to human CCR4 receptor
T3 sequence (P51679 whole entry): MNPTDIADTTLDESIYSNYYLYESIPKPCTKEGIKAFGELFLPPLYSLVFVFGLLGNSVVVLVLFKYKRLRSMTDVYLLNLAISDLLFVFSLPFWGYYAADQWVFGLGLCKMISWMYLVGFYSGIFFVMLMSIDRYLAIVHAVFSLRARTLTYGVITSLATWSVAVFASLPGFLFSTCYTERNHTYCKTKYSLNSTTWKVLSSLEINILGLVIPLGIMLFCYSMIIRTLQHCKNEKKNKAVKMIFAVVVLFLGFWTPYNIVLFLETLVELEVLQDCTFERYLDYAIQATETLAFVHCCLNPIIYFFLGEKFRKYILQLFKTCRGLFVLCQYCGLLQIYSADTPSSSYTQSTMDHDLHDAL

[11] = Fraction unbound in rat plasma; assay type: ADME, cell-free
[12] = Intrinsic clearance in human liver microsomes assessed per mg of protein; assay type: ADME, Microsome; details: liver microsomes
[13] = biological target: Cytochrome P450 2C19 (Homo sapiens, UniProt P33261); experiment: Inhibition of liver CYP2C19; assay type: ADME, tissue-based
[14] = Clearance in rat at 1 mg/kg, iv; assay type: ADME, organism-based; design: dose 1 mg/kg, route intravenous; details: in vivo
[15] = biological target: C-X-C chemokine receptor type 4 (Homo sapiens, UniProt P61073); experiment: Binding affinity to human CXCR4
[16] = test system: Human immunodeficiency virus; experiment: Antiviral activity against R5-tropic HIV Ba-L infected in human PBMC cells assessed as inhibition of viral replication; assay type: functional, organism-based; details: Human immunodeficiency virus 1, Ba-L
[17] = test system: Human immunodeficiency virus 1; experiment: Antiviral activity against recombinant HIV1 virus infected in human JC53BL cells after 3 days; assay type: functional, organism-based; details: Human immunodeficiency virus 1, JC53BL, 72 h
[18] = biological target: Cytochrome P450 3A4 (Homo sapiens, UniProt P08684); experiment: Inhibition of liver CYP3A4; assay type: ADME, tissue-based
[19] = Cmax in dog at 1 mg/kg, po; assay type: ADME, organism-based, Canis lupus familiaris; design: dose 1 mg/kg, route oral; details: in vivo
[20] = Half life in dog at 1 mg/kg, iv; assay type: ADME, organism-based, Canis lupus familiaris; design: dose 1 mg/kg, route intravenous; details: in vivo
[21] = biological target: T4, C-C chemokine receptor type 3 (Homo sapiens, UniProt P51677); experiment: Binding affinity to human CCR3 receptor
T4 sequence (P51677 whole entry): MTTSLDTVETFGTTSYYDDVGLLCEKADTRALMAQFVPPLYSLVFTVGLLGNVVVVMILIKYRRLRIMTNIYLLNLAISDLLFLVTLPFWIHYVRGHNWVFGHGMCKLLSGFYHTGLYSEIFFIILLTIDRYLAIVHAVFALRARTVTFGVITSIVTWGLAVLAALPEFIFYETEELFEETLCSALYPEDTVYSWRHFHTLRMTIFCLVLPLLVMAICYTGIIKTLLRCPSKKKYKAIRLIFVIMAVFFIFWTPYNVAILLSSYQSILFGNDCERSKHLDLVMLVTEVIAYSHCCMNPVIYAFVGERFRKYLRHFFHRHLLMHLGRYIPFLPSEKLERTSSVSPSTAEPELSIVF

[22] = AUC in rat at 1 mg/kg, po; assay type: ADME, organism-based; design: dose 1 mg/kg, route oral; details: plasma
[23] = AUC in cynomolgus monkey at 1 mg/kg, po; assay type: ADME, organism-based, Macaca fascicularis; design: dose 1 mg/kg, route oral; details: plasma
[24] = biological target: T5, C-C chemokine receptor type 6 (Homo sapiens, UniProt P51684); experiment: Binding affinity to human CCR6 receptor
T5 sequence (P51684 whole entry): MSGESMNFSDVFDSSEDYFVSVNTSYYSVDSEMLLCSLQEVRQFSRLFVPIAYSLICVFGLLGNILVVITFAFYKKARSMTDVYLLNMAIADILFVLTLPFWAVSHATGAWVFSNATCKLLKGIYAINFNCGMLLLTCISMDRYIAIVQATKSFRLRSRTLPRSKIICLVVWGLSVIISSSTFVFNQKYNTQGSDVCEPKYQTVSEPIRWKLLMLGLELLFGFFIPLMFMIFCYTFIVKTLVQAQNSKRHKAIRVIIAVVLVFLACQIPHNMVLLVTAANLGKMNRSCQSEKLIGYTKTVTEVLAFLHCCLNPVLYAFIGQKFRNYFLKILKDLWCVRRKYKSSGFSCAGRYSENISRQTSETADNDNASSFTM

[25] = Half life in cynomolgus monkey at 1 mg/kg, iv; assay type: ADME, organism-based, Macaca fascicularis; design: dose 1 mg/kg, route intravenous; details: in vivo
[26] = Volume of distribution at steady state in dog at 1 mg/kg, iv; assay type: ADME, organism-based, Canis lupus familiaris; design: dose 1 mg/kg, route intravenous; details: in vivo, read-out: Vdss
[27] = Oral bioavailability in cynomolgus monkey at 1 mg/kg, po; assay type: ADME, organism-based, Macaca fascicularis; details: in vivo
[28] = biological target: hERG (KCNH2) (Homo sapiens, UniProt Q12809); experiment: (§1) Inhibition of human ERG; details: human
[29] = biological target: Voltage-gated inwardly rectifying potassium channel KCNH2 (Homo sapiens, UniProt Q12809); experiment: as §1
[30] = Oral bioavailability in rat at 1 mg/kg, po; assay type: ADME, organism-based; details: in vivo
[31] = Clearance in cynomolgus monkey at 1 mg/kg, iv; assay type: ADME, organism-based, Macaca fascicularis; design: dose 1 mg/kg, route intravenous; details: in vivo
[32] = biological target: C-C chemokine receptor type 5 (Homo sapiens, UniProt P51681); experiment: Displacement of [125I]RANTES from human CCR5 receptor co-transfected with Galphai6 in CHO cells; assay type: cell-based
[33] = Cmax in cynomolgus monkey at 1 mg/kg, po; assay type: ADME, organism-based, Macaca fascicularis; design: dose 1 mg/kg, route oral; details: in vivo
[34] = Volume of distribution at steady state in cynomolgus monkey at 1 mg/kg, iv; assay type: ADME, organism-based, Macaca fascicularis; design: dose 1 mg/kg, route intravenous; details: in vivo, read-out: Vdss
[35] = Oral bioavailability in dog at 1 mg/kg, po; assay type: ADME, organism-based, Canis lupus familiaris; details: in vivo
[36] = Cmax in rat at 1 mg/kg, po; assay type: ADME, organism-based; design: dose 1 mg/kg, route oral; details: in vivo
[37] = Volume of distribution at steady state in rat at 1 mg/kg, iv; assay type: ADME, organism-based; design: dose 1 mg/kg, route intravenous; details: in vivo, read-out: Vdss
[38] = AUC in dog at 1 mg/kg, po; assay type: ADME, organism-based, Canis lupus familiaris; design: dose 1 mg/kg, route oral; details: plasma

Cytochrome P450 2D6, sequence (P10635 whole entry): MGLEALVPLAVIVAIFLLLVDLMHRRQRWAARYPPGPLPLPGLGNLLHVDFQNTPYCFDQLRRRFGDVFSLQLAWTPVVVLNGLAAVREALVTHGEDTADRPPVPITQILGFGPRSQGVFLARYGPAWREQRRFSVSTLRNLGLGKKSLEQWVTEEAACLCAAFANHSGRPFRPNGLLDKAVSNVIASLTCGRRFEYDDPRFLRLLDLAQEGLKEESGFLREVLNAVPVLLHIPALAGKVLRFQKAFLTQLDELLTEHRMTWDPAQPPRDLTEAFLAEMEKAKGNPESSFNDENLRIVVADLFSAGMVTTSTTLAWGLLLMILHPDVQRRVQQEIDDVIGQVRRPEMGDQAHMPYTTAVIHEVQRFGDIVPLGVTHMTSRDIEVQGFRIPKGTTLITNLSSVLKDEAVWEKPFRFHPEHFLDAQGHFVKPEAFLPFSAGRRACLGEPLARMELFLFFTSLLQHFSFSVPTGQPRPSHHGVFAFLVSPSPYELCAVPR
Cytochrome P450 2C9, sequence (P11712 whole entry): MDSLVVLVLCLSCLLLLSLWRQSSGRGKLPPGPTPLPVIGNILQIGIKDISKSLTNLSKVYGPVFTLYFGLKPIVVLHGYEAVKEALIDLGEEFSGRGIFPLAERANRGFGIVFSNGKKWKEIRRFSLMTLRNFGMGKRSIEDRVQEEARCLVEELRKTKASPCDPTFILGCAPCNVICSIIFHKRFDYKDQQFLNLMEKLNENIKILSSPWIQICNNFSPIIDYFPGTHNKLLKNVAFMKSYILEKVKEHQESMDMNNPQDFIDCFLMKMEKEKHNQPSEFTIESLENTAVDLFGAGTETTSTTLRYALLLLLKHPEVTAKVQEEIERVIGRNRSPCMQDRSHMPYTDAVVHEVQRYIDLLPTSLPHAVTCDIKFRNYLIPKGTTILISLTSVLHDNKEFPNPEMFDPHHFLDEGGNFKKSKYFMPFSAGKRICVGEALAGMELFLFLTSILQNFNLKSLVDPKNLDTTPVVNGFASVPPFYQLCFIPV
Voltage-gated inwardly rectifying potassium channel KCNH2, sequence (Q12809 whole entry): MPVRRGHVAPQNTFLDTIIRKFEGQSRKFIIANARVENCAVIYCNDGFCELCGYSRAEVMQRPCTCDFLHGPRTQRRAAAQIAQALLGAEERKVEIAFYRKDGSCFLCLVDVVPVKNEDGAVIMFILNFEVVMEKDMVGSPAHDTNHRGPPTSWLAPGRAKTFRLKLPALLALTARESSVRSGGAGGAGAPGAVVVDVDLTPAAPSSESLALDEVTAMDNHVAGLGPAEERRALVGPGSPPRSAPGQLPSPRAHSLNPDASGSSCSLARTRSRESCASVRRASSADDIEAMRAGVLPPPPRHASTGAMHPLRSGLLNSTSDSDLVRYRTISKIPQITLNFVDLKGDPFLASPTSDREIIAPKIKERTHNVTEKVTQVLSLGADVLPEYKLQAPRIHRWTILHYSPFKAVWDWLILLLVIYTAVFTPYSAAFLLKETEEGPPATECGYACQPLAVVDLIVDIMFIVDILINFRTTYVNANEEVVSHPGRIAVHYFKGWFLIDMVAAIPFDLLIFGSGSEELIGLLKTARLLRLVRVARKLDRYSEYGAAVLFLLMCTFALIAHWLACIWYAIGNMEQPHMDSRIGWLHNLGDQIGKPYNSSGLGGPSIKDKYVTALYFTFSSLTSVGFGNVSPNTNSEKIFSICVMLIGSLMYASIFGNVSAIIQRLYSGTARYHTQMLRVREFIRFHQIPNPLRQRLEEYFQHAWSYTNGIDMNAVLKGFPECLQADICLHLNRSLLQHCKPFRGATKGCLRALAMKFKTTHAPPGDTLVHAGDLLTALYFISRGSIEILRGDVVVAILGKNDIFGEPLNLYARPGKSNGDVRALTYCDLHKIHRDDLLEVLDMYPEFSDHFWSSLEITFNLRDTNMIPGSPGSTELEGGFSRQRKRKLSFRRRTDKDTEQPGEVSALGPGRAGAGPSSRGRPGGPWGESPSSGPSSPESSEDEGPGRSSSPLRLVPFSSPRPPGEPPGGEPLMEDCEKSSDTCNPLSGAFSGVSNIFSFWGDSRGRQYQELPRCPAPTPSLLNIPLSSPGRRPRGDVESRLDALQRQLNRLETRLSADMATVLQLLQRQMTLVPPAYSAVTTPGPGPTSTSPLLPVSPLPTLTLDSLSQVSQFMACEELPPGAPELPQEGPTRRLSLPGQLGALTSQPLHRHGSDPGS
hERG (KCNH2), sequence (Q12809 whole entry): as above
Cytochrome P450 2C19, sequence (P33261 whole entry): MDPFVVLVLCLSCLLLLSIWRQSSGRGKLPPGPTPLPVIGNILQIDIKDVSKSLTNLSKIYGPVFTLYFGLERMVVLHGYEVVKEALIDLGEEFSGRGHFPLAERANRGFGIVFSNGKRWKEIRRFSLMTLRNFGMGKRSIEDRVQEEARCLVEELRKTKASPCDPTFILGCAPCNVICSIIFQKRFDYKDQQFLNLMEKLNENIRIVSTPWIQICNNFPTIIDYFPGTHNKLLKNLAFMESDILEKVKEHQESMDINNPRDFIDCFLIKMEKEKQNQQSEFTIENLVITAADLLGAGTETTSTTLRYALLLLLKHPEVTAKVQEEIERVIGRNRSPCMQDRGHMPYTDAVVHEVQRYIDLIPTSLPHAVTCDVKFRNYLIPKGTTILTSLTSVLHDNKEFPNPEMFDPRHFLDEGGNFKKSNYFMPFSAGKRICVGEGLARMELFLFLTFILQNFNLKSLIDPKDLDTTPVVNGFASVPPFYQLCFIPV
C-X-C chemokine receptor type 4, sequence (P61073 whole entry): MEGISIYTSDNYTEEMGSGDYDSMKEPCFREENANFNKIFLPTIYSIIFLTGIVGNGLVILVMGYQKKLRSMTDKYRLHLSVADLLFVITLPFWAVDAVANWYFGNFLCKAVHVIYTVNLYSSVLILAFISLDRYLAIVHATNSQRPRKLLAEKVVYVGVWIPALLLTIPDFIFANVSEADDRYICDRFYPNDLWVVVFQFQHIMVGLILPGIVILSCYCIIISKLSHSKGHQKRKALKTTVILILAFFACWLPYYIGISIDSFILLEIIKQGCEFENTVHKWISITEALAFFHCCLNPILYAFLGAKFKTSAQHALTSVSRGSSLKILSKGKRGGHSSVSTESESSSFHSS
C-C chemokine receptor type 2, sequence (P41597 whole entry): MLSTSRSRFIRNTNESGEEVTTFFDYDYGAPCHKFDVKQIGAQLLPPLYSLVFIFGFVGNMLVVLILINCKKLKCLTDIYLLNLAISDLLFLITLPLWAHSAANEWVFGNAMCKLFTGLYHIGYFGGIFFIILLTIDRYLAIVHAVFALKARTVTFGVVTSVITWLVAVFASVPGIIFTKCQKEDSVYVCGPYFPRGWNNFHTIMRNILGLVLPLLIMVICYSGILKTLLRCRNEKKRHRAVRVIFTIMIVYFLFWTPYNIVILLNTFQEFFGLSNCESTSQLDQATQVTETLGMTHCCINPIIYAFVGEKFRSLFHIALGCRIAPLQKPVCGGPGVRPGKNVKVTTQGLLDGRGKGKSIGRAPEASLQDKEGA
Cytochrome P450 3A4, sequence (P08684 whole entry): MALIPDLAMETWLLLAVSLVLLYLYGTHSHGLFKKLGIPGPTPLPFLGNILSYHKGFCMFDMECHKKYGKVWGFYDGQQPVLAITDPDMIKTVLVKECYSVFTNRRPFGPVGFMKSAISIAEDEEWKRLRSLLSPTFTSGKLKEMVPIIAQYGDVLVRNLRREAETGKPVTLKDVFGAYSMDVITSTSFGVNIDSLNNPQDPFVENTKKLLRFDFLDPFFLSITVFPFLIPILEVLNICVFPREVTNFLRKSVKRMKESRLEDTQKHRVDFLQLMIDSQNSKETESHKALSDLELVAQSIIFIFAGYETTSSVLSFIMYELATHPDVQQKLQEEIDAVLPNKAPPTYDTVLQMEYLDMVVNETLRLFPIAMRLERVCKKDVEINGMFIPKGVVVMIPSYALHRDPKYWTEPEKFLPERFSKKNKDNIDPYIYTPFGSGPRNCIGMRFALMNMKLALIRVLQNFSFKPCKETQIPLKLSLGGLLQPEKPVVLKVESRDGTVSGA

**Q.** For CCCC[C@H]1CN(CC2CCOCC2)C(=O)OC12CCN(C1(C)CCN(C(=O)c3c(C)ncnc3C)CC1)CC2, which half-life [1] is on record?
**A.** 1.4 h

**Q.** What about the Activity [2] of the same compound?
**A.** Not Active

**Q.** And the fraction unbound [3]?
**A.** 0.04

**Q.** And the Activity [4]?
**A.** Not Active

**Q.** What about the IC50 [5] of the same compound?
**A.** > 50 µM

**Q.** And the clearance [6]?
**A.** 20 mL/min/kg

**Q.** What about the Activity [7] of the same compound?
**A.** Not Active

**Q.** What about the IC50 [8] of the same compound?
**A.** > 50 µM

**Q.** What about the fraction unbound [9] of the same compound?
**A.** 0.13

**Q.** What about the IC50 [10] of the same compound?
**A.** > 50 µM

**Q.** And the fraction unbound [11]?
**A.** 0.32

**Q.** What about the microsomal CLint [12] of the same compound?
**A.** 12 µL/min/mg

**Q.** And the Activity [13]?
**A.** Not Active

**Q.** What about the clearance [14] of the same compound?
**A.** 52 mL/min/kg

**Q.** And the IC50 [15]?
**A.** > 50 µM

**Q.** What about the IC50 [16] of the same compound?
**A.** 0.00018 µM

**Q.** And the IC50 [17]?
**A.** 0.006 µM

**Q.** What about the Activity [18] of the same compound?
**A.** Not Active

**Q.** And the Cmax [19]?
**A.** 225 ng/mL

**Q.** And the half-life [20]?
**A.** 2.9 h

**Q.** What about the IC50 [21] of the same compound?
**A.** > 50 µM

**Q.** What about the AUC [22] of the same compound?
**A.** 54 ng·h/mL

**Q.** What about the AUC [23] of the same compound?
**A.** 396 ng·h/mL

**Q.** And the IC50 [24]?
**A.** > 50 µM

**Q.** And the half-life [25]?
**A.** 3.5 h

**Q.** And the Vd [26]?
**A.** 3.2 L/kg

**Q.** What about the bioavailability [27] of the same compound?
**A.** 42%

**Q.** And the IC20 [28]?
**A.** 2.9 µM

**Q.** And the IC50 [29]?
**A.** 11.9 µM

**Q.** And the bioavailability [30]?
**A.** 10%

**Q.** What about the clearance [31] of the same compound?
**A.** 19 mL/min/kg

**Q.** And the IC50 [32]?
**A.** 0.025 µM

**Q.** What about the Cmax [33] of the same compound?
**A.** 42 ng/mL

**Q.** What about the Vd [34] of the same compound?
**A.** 3 L/kg

**Q.** And the bioavailability [35]?
**A.** 85%

**Q.** And the Cmax [36]?
**A.** 13 ng/mL

**Q.** And the Vd [37]?
**A.** 3.8 L/kg

**Q.** And the AUC [38]?
**A.** 700 ng·h/mL
